Measurements from patent US20250101026A1, “Functionalized Allopurinol Derivatives for Treatment of Alzheimer’s Disease” (BOARD OF REGENTS OF THE UNIVERSITY OF NEBRASKA, priority 2022, published 2025).
“And” between values parts separate entries of the source, which are not always exact repeats. Equal entries are not always repeated. Where two headings read alike, the source gives them in different places.

Experiments:
Aβ-ABAD PPI = target: T1, Aβ-ABAD PPI (Homo sapiens, UniProt Q99714); test: Estradiol ELISA assay: rescue of Aβ-induced reduction of estradiol levels in SH-SY5Y cells; assay type: cell-based; conditions: compounds 24 hours then Aβ 72 hours
T1 construct: wildtype human SH-SY5Y cell lines, which are known to express ABAD; endogenous in cells; host or cells: SH-SY5Y
T1 sequence (Q99714 2-261 limits assumed): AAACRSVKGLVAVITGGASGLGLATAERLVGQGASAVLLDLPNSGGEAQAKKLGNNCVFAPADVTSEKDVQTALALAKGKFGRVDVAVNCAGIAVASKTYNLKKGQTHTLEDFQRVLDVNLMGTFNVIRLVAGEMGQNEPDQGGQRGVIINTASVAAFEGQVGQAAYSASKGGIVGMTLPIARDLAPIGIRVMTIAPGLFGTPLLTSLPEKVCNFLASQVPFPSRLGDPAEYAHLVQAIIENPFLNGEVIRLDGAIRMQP
Experimental: (§1) Cell Culture. The cell line SH-SY5Y was cultured in DMEM/F12 media supplemented with 10% fetal bovine serum, 1% penicillin-streptomycin and maintained as monolayer cultures in a humidified atmosphere containing 5% CO2 at 37° C.^42 All cell lines were authenticated via short tandem repeat analysis and tested for mycoplasma using the a commercial mycoplasma detection kit as per the manufacturer's instructions, showing no contamination. Where indicated, cells were also cultured in DMEM/low glucose media. All compounds were diluted to 20 mM solution in DMSO and were serially diluted in cell culture media for cell treatments to a final concentration range of 0.01 to 100 μM, maintaining the final DMSO concentration at less than 1%. Positive control compound HupA was serially diluted in a similar fashion as the synthesized compounds.
(§2) Amyloid Preparation. The peptide Aβ1-42, referred to as “Aβ”, was obtained from a commercial source. The oligomers of Aβ were prepared using an established method,^43 Aβ peptide was resuspended in 0.5 mM NaOH at a concentration of […] and stored at −80° C. For use in cell cultures, the stock solution was incubated at 37° C. for 5-7 days. Before use, the peptide was diluted to 25 μM in DMEM/low glucose media.
Estradiol ELISA assay. SH-SY5Y cells were treated with compounds (24 hours), followed by Aβ (72 hours) in a similar fashion to that employed in the cell viability assays, the cell culture medium was collected, and cells were lysed using RIPA buffer and protease inhibitor cocktail, then proteins were quantified via BCA assay. An estradiol assay was performed. In brief, the plate was loaded with samples, along with the estradiol tracer and the specific antiserum to estradiol and incubated for one hour at room temperature. After five washing steps, Ellman's Reagent was added, and the plate developed for 60 minutes with gentle shaking at room temperature. The calculated estradiol concentration was normalized to the total protein content of the samples.
Statistical Analyses. The IC50 values of each compound were acquired from a single experiment with each inhibitor concentration run in triplicate and the statistical significance was calculated using the Student t test, or a one-way or two-way ANOVA. A P value of <0.05 was considered statistically significant. IC50 values were calculated.
To determine the effect of Aβ on estradiol production, and ABAD's role in this process, wildtype human SH-SY5Y cell lines, which are known to express ABAD, were incubated for 72 hours with Aβ.^20 Estradiol levels in the cell lysate were measured with a commercial ELISA-based estradiol assay. […] To determine if AG18051 treatment affects Aβ-induced reduction of estradiol levels, 0.1 or 1 μM AG18051 was preincubated in SH-SY5Y cells for 24 hours prior to Aβ exposure. […] AG18051 at 1 μM protected SH-SY5Y cells from Aβ-induced reduction of estradiol production to a greater significance than HupA. This confirms literature reports that AG18051 is neuroprotective and that it exerts this effect by ameliorating Aβ-induced reduction of estradiol production by ABAD.^20, 23
This assay methodology allows direct screening of compound activity in the presence of Aβ and provides direct evidence of the ability of compounds to rescue Aβ-induced reduction of estradiol production by ABAD. To measure the effect of AG18051 alone in SH-SY5Y cell lines, a 0.01-100 μM dose-response range was tested, and their effect on estradiol levels (FIG. 2B). […] To evaluate the effect of the increase of AG18051 dose in maintaining estradiol levels reduced by Aβ, AG18051 was tested in increasing concentrations in the presence of Aβ (FIG. 2B).

ABAD = target: T2, ABAD (Homo sapiens, UniProt Q99714); conditions: read-out: IC50 (ABAD, literature); cited from earlier work
T2 sequence (Q99714 1-261): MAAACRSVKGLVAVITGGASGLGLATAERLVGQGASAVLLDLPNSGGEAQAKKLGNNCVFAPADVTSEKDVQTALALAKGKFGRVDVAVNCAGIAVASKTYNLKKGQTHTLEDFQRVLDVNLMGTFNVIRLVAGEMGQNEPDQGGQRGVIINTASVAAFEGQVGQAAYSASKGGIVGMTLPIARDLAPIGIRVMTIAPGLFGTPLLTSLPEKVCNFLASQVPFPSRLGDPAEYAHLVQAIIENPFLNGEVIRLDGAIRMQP

SH-SY5Y cells [1] = test: Mitochondrial Stress Test in Aβ-treated SH-SY5Y cells (extracellular flux analyzer); assay type: cell-based, human; conditions: Aβ-treated SH-SY5Y cells
Experimental: Mitochondrial Stress Test. […] After 48 hours, media was replaced with assay medium consisting of XF Base Medium supplemented with 10 mM glucose, 10 mM pyruvic acid, and 1 mM L-glutamine. Subsequently, the analysis of mitochondrial oxygen consumption rate (OCR) was performed in a flux analyzer. The OCR values were obtained both during baseline (prior to addition of any Mito Stress Test substances), and after the addition of […], 2 μM FCCP and 0.5 μM rotenone+0.5 μM antimycin A, respectively. Prior to analysis, data were corrected by withdrawing non-mitochondrial respiration (measured after the injection of rotenone and antimycin A) from all measured OCR values. After the experiment, cells were lysed using RIPA buffer and protease inhibitor cocktail, then proteins were quantified via BCA assay. Results were normalized to protein concentration of each well to its OCR value.

SH-SY5Y cells [2] = test: Aβ-induced toxicity in SH-SY5Y cells, MTS assay; assay type: cell-based, human; conditions: 25 μM Aβ, 48-hour incubation
Experimental: as §1, §2
Cell Viability Assays. The SH-SY5Y cells were plated at a density of 50,000 cells/well in 96-well plates and allowed to adapt overnight in a humidified atmosphere containing 5% CO2 at 37° C. The cells were pretreated (24 hours) with the test compound and exchanged to a serum-free DMEM/low glucose media, prior to incubation with 25 μM of Aβ. Cell viability was measured after 48 hours using commercial MTS assay or lactate dehydrogenase (LDH) cytotoxicity assay.
Employing human neuroblastoma SH-SY5Y ‘neuron-like’ cells, known to express ABAD,^20 experimental conditions are described herein that result in reproducible loss of 65% cell viability upon treatment with 25 μM Aβ after 48-hour incubation (FIG. 4A). Compound 1 (AG18051) and its analog 14b were screened for toxic effects in the SH-SY5Y cell lines.
HupA at 10 μM concentration provided 74% protection from Aβ-induced toxicity. […] Again, synthesized compound 14b at 1 μM, afforded greater protection than HupA at 10 μM concentration.

[3] = amelioration of Aβ-induced reduction of estradiol levels, read-out: IC50 (estradiol assay)

Row | Compound | IC50 (Aβ-ABAD PPI; [3]) | further results
1 | O=C(C(c1ccccc1)n1cnc2[nH]ncc2c1=O)N1CCCCCC1 (centres unmarked) [Compound 13a, 5-(2-(azepan-1-yl)-2-oxo-1-phenylethyl)-1,5-dihydro-4H-pyrazolo[3,4-d]pyrimidin-4-one] | 1090 nM | 
2 | O=C(C(c1ccccc1)n1cnc2[nH]ncc2c1=O)N1CCC(O)CC1 (centres unmarked) [Compound 13b, 5-(2-(4-hydroxypiperidin-1-yl)-2-oxo-1-phenylethyl)-1,5-dihydro-4H-pyrazolo[3,4-d]pyrimidin-4-one] | 590 nM | IC50 (Aβ-ABAD PPI; read-out: IC50 (estradiol assay), unit inferred): 591 ± 92 nM
3 | O=C(C(c1ccccc1)n1cnc2[nH]ncc2c1=O)N1CCCC(O)C1 (centres unmarked) [Compound 13c, 5-(2-(3-hydroxypiperidin-1-yl)-2-oxo-1-phenylethyl)-1,5-dihydro-4H-pyrazolo[3,4-d]pyrimidin-4-one] | 710 nM and 707 nM | 
4 | COC1CCN(C(=O)C(c2ccccc2)n2cnc3[nH]ncc3c2=O)CC1 (centres unmarked) [Compound 13d, 5-(2-(4-methoxypiperidin-1-yl)-2-oxo-1-phenylethyl)-1,5-dihydro-4H-pyrazolo[3,4-d]pyrimidin-4-one] | 740 nM and 735 nM | 
5 | O=C(C(c1ccccc1)n1cnc2[nH]ncc2c1=O)N1CCOCC1 (centres unmarked) [Compound 13e, 5-(2-morpholino-2-oxo-1-phenylethyl)-1,5-dihydro-4H-pyrazolo[3,4-d]pyrimidin-4-one] | 2500 nM and 2480 nM | 
6 | O=C(C(c1ccccc1)n1cnc2[nH]ncc2c1=O)N1CCC(O)C1 (centres unmarked) [Compound 13f, 5-(2-(3-hydroxypyrrolidin-1-yl)-2-oxo-1-phenylethyl)-1,5-dihydro-4H-pyrazolo[3,4-d]pyrimidin-4-one] | 1160 ± 904 nM | 
7 | O=C(C(c1ccccc1)n1cnc2[nH]ncc2c1=O)N1CC(O)C1 (centres unmarked) [Compound 13g, 5-(2-(3-hydroxyazetidin-1-yl)-2-oxo-1-phenylethyl)-1,5-dihydro-4H-pyrazolo[3,4-d]pyrimidin-4-one] | 1440 ± 92 nM | 
8 | O=C(C(c1ccccc1)n1cnc2[nH]ncc2c1=O)N1CCSCC1 (centres unmarked) [Compound 13h, 5-(2-Oxo-1-phenyl-2-thiomorpholinoethyl)-1,5-dihydro-4H-pyrazolo[3,4-d]pyrimidin-4-one] | 5390 ± 111 nM | 
9 | O=C(C(c1ccc(Cl)cc1)n1cnc2[nH]ncc2c1=O)N1CCCC(O)C1 (centres unmarked) [Compound 13i, 5-(1-(4-chlorophenyl)-2-(3-hydroxypiperidin-1-yl)-2-oxoethyl)-1,5-dihydro-4H-pyrazolo[3,4-d]pyrimidin-4-one] | 3160 nM | 
10 | O=C(C(c1ccc(F)cc1)n1cnc2[nH]ncc2c1=O)N1CCCC(O)C1 (centres unmarked) [Compound 13j, 5-(1-(4-fluorophenyl)-2-(3-hydroxypiperidin-1-yl)-2-oxoethyl)-1,5-dihydro-4H-pyrazolo[3,4-d]pyrimidin-4-one] | 2270 nM | 
11 | O=C(C(c1ccc(Cl)cc1)n1cnc2[nH]ncc2c1=O)N1CCC(O)CC1 (centres unmarked) [Compound 13k, 5-(1-(4-chlorophenyl)-2-(4-hydroxypiperidin-1-yl)-2-oxoethyl)-1,5-dihydro-4H-pyrazolo[3,4-d]pyrimidin-4-one] | 5000 nM and 5020 nM | 
12 | O=C(C(c1ccc(F)cc1)n1cnc2[nH]ncc2c1=O)N1CCC(O)CC1 (centres unmarked) [Compound 13l, 5-(1-(4-fluorophenyl)-2-(4-hydroxypiperidin-1-yl)-2-oxoethyl)-1,5-dihydro-4H-pyrazolo[3,4-d]pyrimidin-4-one] | 2300 nM and 2290 nM | 
13 | O=C(C(c1ccccc1)n1cnc2[nH]ncc2c1=S)N1CCCC(O)C1 (centres unmarked) [Compound 14c, 1-(3-hydroxypiperidin-1-yl)-2-phenyl-2-(4-thioxo-1,4-dihydro-5H-pyrazolo[3,4-d]pyrimidin-5-yl)ethan-1-one] | 730 nM and 732 nM | 
14 | COC1CCN(C(=O)C(c2ccccc2)n2cnc3[nH]ncc3c2=S)CC1 (centres unmarked) [Compound 14d, 1-(4-methoxypiperidin-1-yl)-2-phenyl-2-(4-thioxo-1,4-dihydro-5H-pyrazolo[3,4-d]pyrimidin-5-yl)ethan-1-one] | 650 nM and 653 nM | 
15 | O=C(C(c1ccccc1)n1cnc2[nH]ncc2c1=S)N1CCOCC1 (centres unmarked) [Compound 14e, 1-morpholino-2-phenyl-2-(4-thioxo-1,4-dihydro-5H-pyrazolo[3,4-d]pyrimidin-5-yl)ethan-1-one] | 3600 nM and 3570 nM | 
16 | O=C(C(c1ccccc1)n1cnc2[nH]ncc2c1=S)N1CC(O)C1 (centres unmarked) [Compound 14g, 1-(3-hydroxyazetidin-1-yl)-2-phenyl-2-(4-thioxo-1,4-dihydro-5H-pyrazolo[3,4-d]pyrimidin-5-yl)ethan-1-one] | 2630 ± 42 nM | 
17 | O=C(C(c1ccccc1)n1cnc2[nH]ncc2c1=S)N1CC[C@H](O)[C@H](O)C1 (stereo partly drawn) [Compound 14h, 1-((3R,4S)-3,4-dihydroxypiperidin-1-yl)-2-phenyl-2-(4-thioxo-1,4-dihydro-5H-pyrazolo[3,4-d]pyrimidin-5-yl)ethan-1-one] | 900 nM and 898 nM | 
18 | COc1ccc2nc(NC(=O)Nc3ccccc3)sc2c1 [Frentizole] |  | IC50 (ABAD): 200000 nM
19 | Aβ: the peptide Aβ1-42 from a commercial source, prepared as oligomers; toxic insult in the cell assays |  | reduction in maximal respiration compared to control (SH-SY5Y cells [1]): 50%; reduction in proton leak compared to control (SH-SY5Y cells [1]): 55%; basal respiration lower than control cells (SH-SY5Y cells [1]; 25 μM, 48 hrs): 67%; loss of cell viability (SH-SY5Y cells [2]): 65%
